{"source": "patent US12370167B2", "about": "“Blood-brain barrier permeability regulator and use thereof” (ZHEJIANG UNIVERSITY, priority 2019, dated 2025)", "key": {"[1]": {"tested_on": "blood-brain barrier permeability", "experiment": "Brain distribution of DiR-labelled Angiopep-2-modified glycolipid nano-delivery system after SC79 in in situ glioma model", "format": "in vivo, BABL/c nude mice", "details": "SC79 5 mg/kg tail vein 24 hours before the DiR-labelled system; brain taken after 4 hours; vs tumor-bearing control group", "method": "FIG. 12: Regulation of increase in the blood-brain barrier permeability and enhancement of distribution of Angiopep-2-modified glycolipid nano-delivery system in the brain by SC79. SC79 was injected into tail veins of tumor-bearing animals at an administration dose of 5 mg/kg. After 24 hours, the Angiopep-2-modified glycolipid nano-delivery system encapsulated with near-infrared fluorescent probe DiR was injected into tail veins. After 4 hours, the intact brain of the nude mice was taken by cardiac perfusion.\nMale BABL/c nude mice (20+2 g) were used as the model animals. U87-luci glioma cells expressing luciferase were inoculated in the striatum area of nude mice at a concentration of 5×10^5 cells/5 μL by means of a brain stereotaxic instrument (inoculation coordinates, 0.8 mm on the anterior side of bregma, 2 mm on the right side, and 3 mm in depth), to construct an in situ glioma model. SC79 diluted with 0.2% injection grade Tween 80 solution was injected into tail veins at an administration dose of 5 mg/kg. After 24 hours, the Angiopep-2-modified glycolipid nano-delivery system encapsulated with near-infrared fluorescent probe DiR was injected into tail veins. After 4 hours, the intact brain of the nude mice was taken by cardiac perfusion. […]"}, "[2]": {"tested_on": "brain microvascular endothelial cells bEnd.3", "experiment": "Transmembrane resistance of physiological blood-brain barrier Transwell model, SC79 dose dependence", "format": "cell-based", "details": "SC79 0, 5, 10 μg/mL; 24 hours; n=5", "method": "A Transwell model of brain microvascular endothelial cells bEnd.3 was used to mimic the physiological blood-brain barrier. SC79 at different concentrations (0, 5 μg/mL, 10 μg/mL) was applied to the Transwell chamber. After 24 hours, the cell transmembrane resistance was detected by a cell resistance meter (n=5).\n(§1) Brain microvascular endothelial cells bEnd.3 were used as model cells of a blood-brain barrier. 0.5 mL suspension of well-grown bEnd.3 cells was inoculated in the chamber of a 12-well Transwell plate with a pore size of 0.4 μm at a cell density of 1×10^5/well. 1.5 mL of fresh culture medium was supplemented in the outer chamber. The culture medium was refreshed every other day. Incubation was continued for 15 days at 37° C. and 5% CO2. When the cell transmembrane resistance value was greater than 150 ohm·cm^2 (Ω·cm^2), it may be regarded that a model of physiological blood-brain barrier was obtained.\nA protein kinase B activator SC79 at different concentrations (0, 5 μg/mL, 10 μg/mL) was added into the Transwell chamber in the model of physiological blood-brain barrier. After 24 hours of the drug action, the Transwell chamber with bEnd.3 cells grown was transferred to another 12-well plate, and washed with PBS for 3 times. […] After the cells were equilibrated at 37° C. for 15 minutes, the cell transmembrane resistance was detected by a cell resistance meter."}, "[3]": {"tested_on": "brain microvascular endothelial cells bEnd.3", "experiment": "FITC-dextran transport across physiological blood-brain barrier Transwell model", "format": "cell-based", "details": "SC79 0, 5, 10 μg/mL; 24 hours, then FITC-dextran 10 kDa for 4 hours", "method": "FIG. 7: In vitro dose-dependent influence of SC79 on the efficiency of transportation of FITC-dextran cross the blood-brain barrier. A Transwell model of brain microvascular endothelial cells bEnd.3 was used to mimic the physiological blood-brain barrier. SC79 at different concentrations (0, 5 μg/mL, 10 μg/mL) was applied to the Transwell chamber. After 24 hours, the Transwell chamber and the outer chamber were washed with PBS. A solution of FITC-dextran in HBSS was added to the Transwell chamber for an action of 4 hours.\nas §1, with “When the cell transmembrane resistance value was greater than 150 ohm·cm^2 (Ω·cm^2), it may be regarded that a model of physiological blood-brain barrier was obtained.” left out\nA protein kinase B activator SC79 at different concentrations ([…], 10 μg/mL) was added into the Transwell chamber in the model of physiological blood-brain barrier. […] After the cells were incubated at 37° C. in the dark for 4 hours, the concentration of FITC-dextran transferred to the outer chamber via the Transwell chamber was detected with a fluorescence spectrophotometer."}, "[4]": {"tested_on": "bEnd.3 cells; bEnd.3 co-incubated with U87 MG", "experiment": "Real-time transmembrane resistance of physiological and pathological blood-brain barrier models after SC79", "format": "cell-based", "details": "SC79 5 μg/mL", "method": "FIG. 9: In vitro time-dependent regulation of transmembrane resistance of the blood-brain barrier by SC79. A Transwell model of brain microvascular endothelial cells bEnd.3 was used to mimic the physiological blood-brain barrier. A Transwell model of co-incubated brain microvascular endothelial cells bEnd.3 and glioma cell U87 MG was used to mimic the pathological blood-brain barrier. SC79 (5 μg/mL) was applied to the Transwell chamber. The cell transmembrane resistance was real-time monitored by a cell resistance meter (n=5).\nas §1, with “When the cell transmembrane resistance value was greater than 150 ohm·cm^2 (Ω·cm^2), it may be regarded that a model of physiological blood-brain barrier was obtained.” left out\nThe physiological blood-brain barrier and the pathological blood-brain barrier, as respectively constructed according to the procedures described in the above sections of 1 and 2 of Example 2, were used as a model, respectively. […] The cell transmembrane resistance was real-time monitored."}, "[5]": {"tested_on": "tight junction proteins Claudin-5/Occludin in bEnd.3 cells", "experiment": "Claudin-5/Occludin immunofluorescence in physiological blood-brain barrier Transwell model after SC79", "format": "cell-based", "details": "SC79 0, 5, 10 μg/mL, 24 hours", "method": "FIG. 8: In vitro dose-dependent down-regulation of expression of tight junction proteins Claudin-5/Occludin by SC79. A Transwell model of brain microvascular endothelial cells bEnd.3 was used to mimic the physiological blood-brain barrier. SC79 at different concentrations (0, 5 μg/mL, 10 μg/mL) was applied to the Transwell chamber. After 24 hours, the bEnd.3 cells on the membrane of the Transwell chamber were immunofluorescence stained.\nas §1\nA protein kinase B activator SC79 at different concentrations (0, 5 μg/mL, 10 μg/mL) was added into the Transwell chamber in the model of physiological blood-brain barrier. […]"}}}
{"smiles": "CCOC(=O)C1=C(N)Oc2ccc(Cl)cc2C1C(C#N)C(=O)OCC", "note": "(stereo not drawn) [SC79]", "values": [{"measurement": "distribution of Angiopep-2-modified glycolipid nano-delivery system in the brain", "setting": "[1]", "result": "increased"}, {"measurement": "cell transmembrane resistance", "setting": "[2]", "result": "dose-dependent regulation of transmembrane resistance"}, {"measurement": "blood-brain barrier permeability (FITC-dextran in outer chamber)", "setting": "[3]", "result": "increase the blood-brain barrier permeability"}, {"measurement": "effect in increasing the blood-brain barrier permeability", "setting": "[4]; after 24 hours of the drug action", "result": "most significant effect"}, {"measurement": "cell transmembrane resistance over time", "setting": "[4]; physiological and pathological models, real-time", "result": "decreased in a time-dependent manner"}, {"measurement": "expression of tight junction proteins Claudin-5/Occludin", "setting": "[5]", "result": "promotes down-regulation of expression of tight junction proteins"}]}
